Measured values reported in article PMC10709440, “High-throughput ligand profile characterization in novel cell lines expressing seven heterologous insect olfactory receptors for the detection of volatile plant biomarkers” (Scientific Reports, 2023).
Like-named read-outs stand apart in the source and are kept apart here.

Legend:
OR13a [1] = settings: Bactrocera dorsalis OR13a in HEK293 cells; read-out: EC50 in fluorescent measurements; cited from earlier work
OR13a [2] = settings: insect cell line stably expressing OR13a; read-out: EC50 of concentration-dependent Ca2+ signals; cited from earlier work
OR13a [3] = settings: Bactrocera dorsalis OR13a; read-out: EC50 in electrophysiology; cited from earlier work
Drosophila OR49b = molecular target: T1, Drosophila OR49b (Drosophila melanogaster, UniProt Q9V6H2); test: cell-based; design: GCaMP6 calcium fluorescence in stable HEK293 OR+ORCO lines; peak dF normalised to 50 uM VUAA1 (=1); settings: HEK293; relative to 50 uM VUAA1 response; below 0.05 set to 0; read-out: % activation
T1 construct: expressed in transfected cells
T1 sequence (Q9V6H2 1-375): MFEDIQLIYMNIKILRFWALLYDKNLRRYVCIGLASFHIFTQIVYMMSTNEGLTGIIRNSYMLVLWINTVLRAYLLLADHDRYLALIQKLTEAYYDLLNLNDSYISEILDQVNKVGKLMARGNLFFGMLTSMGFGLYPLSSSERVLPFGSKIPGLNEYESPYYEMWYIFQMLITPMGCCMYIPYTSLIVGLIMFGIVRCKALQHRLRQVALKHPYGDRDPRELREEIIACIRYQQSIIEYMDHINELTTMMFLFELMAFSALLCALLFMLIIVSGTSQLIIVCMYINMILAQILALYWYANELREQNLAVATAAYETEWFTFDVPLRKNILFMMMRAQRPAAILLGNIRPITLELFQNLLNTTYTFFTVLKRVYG
T1 sequence (Q9VNB5 1-486 partner): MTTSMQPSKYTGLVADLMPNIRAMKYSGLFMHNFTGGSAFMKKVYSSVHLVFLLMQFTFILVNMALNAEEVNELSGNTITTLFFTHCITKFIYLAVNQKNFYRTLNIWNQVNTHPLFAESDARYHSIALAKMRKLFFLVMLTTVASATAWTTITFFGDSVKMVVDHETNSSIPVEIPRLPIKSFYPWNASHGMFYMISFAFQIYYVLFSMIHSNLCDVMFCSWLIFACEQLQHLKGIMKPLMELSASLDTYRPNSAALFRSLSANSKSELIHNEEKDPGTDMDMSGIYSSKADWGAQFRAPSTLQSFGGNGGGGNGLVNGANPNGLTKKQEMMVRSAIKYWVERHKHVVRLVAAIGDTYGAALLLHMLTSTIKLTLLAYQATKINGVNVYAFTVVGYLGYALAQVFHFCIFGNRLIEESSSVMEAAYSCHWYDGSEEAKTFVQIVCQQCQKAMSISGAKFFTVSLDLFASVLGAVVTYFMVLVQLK
Procedure, shortened: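 Responses to VOCs (1, 10, 100 µM final) were read as fluorescence rise over baseline for 30 s in cells expressing the OR after 48–72 h doxycycline induction, in pH 7.3 buffer. ΔF values were divided by the same line's mean ΔF to 50 µM VUAA1 on that plate. Data are means of replicate days.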

C=CC(O)CCCCC (stereo not drawn) [1-octen-3-ol]
EC50 (OR13a [1]): 11.3 µM
EC50 (OR13a [2]): 4.33 µM
EC50 (OR13a [3]): 1.27 µM

CC/C=C/CCO [e3-hexenol]
activity at 1 µM (Drosophila OR49b): 0%
activity at 10 µM (Drosophila OR49b): 0%
activity at 100 µM (Drosophila OR49b): 7.89%
